Assays:
Type in all cases: cell-based
HCT-116 = test: CCK8 proliferation inhibition, HCT-116; conditions: Homo sapiens, 192 h, CCK8, 8 days after drug treatment
Description: (§1) The above normally growing cells were digested with a cell trypsinization solution, centrifuged, counted, and seeded into a 96-well plate at an appropriate cell density (2000 cells/well) at 100 µL/well. The next day after cell seeding, the compounds at different concentrations were added to the wells. Three replicate wells were set for each concentration point, and a corresponding DMSO negative control group was also set. CCK8 solution was added to each well 8 days after drug treatment. The plate was incubated at 37 °C for a period of time (OD450 of the vehicle group reached 1.0 or higher) before the absorbance at 450 nm was read using a microplate reader. The inhibition rates were calculated, and the EC50 values were determined by fitting using the GraphPad Prism 7.0 software. Table 2. EC50 values of compounds at cellular level

SDMA [1] = test: SDMA Inhibition Assay in HCT-116 cells; conditions: Homo sapiens, HCT-116, 96 hours
Description: (§2) The next day, the cells were treated with the compounds at different concentrations (with an initial concentration of 10 µM, 5-fold dilution, 9 concentration gradients). After 96 hours, the culture medium was pipetted out and the cells were washed 2 times with 100 µL of PBS. The cells were then fixed with 4% paraformaldehyde and incubated at room temperature for 20 min. The fixative solution was discarded, and the cells were washed with PBS. 150 µL of specialized blocking solution (containing 1% Triton-100) was added to each well for blocking at room temperature for 2 hours, and the plate was washed with PBS to remove excess blocking solution. […] The cells were incubated at 4 °C overnight. The next day, the cells were separately washed 2 times with 1× PBST. […] The cells were incubated at room temperature for 2 hours. The cells were washed 2 times with 1× PBST and 1 time with PBS. Fluorescence signals at 700 nm and 800 nm were separately detected using a Li-COR Odyssey two-color near-infrared laser imager. The inhibition rates were calculated, and the EC50 values were determined by fitting using the GraphPad Prism 7.0 software. Table 3. Inhibition of SDMA by test compounds

SDMA [2] = test: SDMA Inhibition Assay in A549 cells; conditions: Homo sapiens, A549, 96 hours
Description: as §2

A549 = test: CCK8 proliferation inhibition, A549; conditions: Homo sapiens, 192 h, CCK8, 8 days after drug treatment
Description: as §1

SDMA [3] = test: SDMA Inhibition Assay in HCT-116-MTAP^-/- cells; conditions: Homo sapiens, 96 hours
Description: as §2

HCT-116-MTAP^-/- = test: CCK8 proliferation inhibition, HCT-116-MTAP^-/-; conditions: Homo sapiens, 192 h; HCT-116-MTAP^-/- (MTAP-deficient); CCK8, 8 days after drug treatment
Description: as §1

SMILES	EC50 (HCT-116) [nM]	EC50 (SDMA [1]) [nM]	EC50 (SDMA [2]) [nM]	EC50 (A549) [nM]	EC50 (SDMA [3]) [nM]	EC50 (HCT-116-MTAP^-/-) [nM]
CC1OCc2c1c(N)nc1cc(F)c(C(=O)N3CCOC[C@@H]3c3ccc4c(c3)OC(F)(F)O4)cc21 (single isomer, unassigned) [I-34 (PEAK2)]	980	60.7	1.3	43.5	1.1	8.3
CCN(Cc1ccc2c(c1)OC(F)(F)O2)C(=O)c1cc2c(cc1F)nc(N)c1cnn(C)c12 [Example I-6]	389		1.9	27.4	2	2.4
C[C@@H]1COCC(c2ccc3c(c2)OC(F)(F)O3)N1C(=O)c1ccc2nc(N)c3cnn(C)c3c2c1 (stereo partly drawn) [Example I-12]	287		0.3	8.9	0.5	2.7
CC(C)N(Cc1ccc2c(c1)OC(F)(F)O2)C(=O)c1ccc2nc(N)c3cnn(C)c3c2c1 [Example I-14]	1200	374	2	36.9	5.3	7.9
Cn1ncc2c(N)nc3cc(F)c(C(=O)N(Cc4ccc5c(c4)OC(F)(F)O5)[C@@H]4CCOC4)cc3c21 [Example I-22]	935		0.6	18.5	1.1	5.6
Cn1ncc2c(N)nc3cc(F)c(C(=O)N(Cc4ccc5c(c4)OC(F)(F)O5)[C@H]4CCOC4)cc3c21 [Example I-25]	1320	123	0.8	33	1.4	5.3
COC[C@H](C)N(Cc1ccc2c(c1)OC(F)(F)O2)C(=O)c1cc2c(cc1F)nc(N)c1cnn(C)c12 [Example I-26]			0.6	10.1	1.7	3.5
Cn1ncc2c(N)nc3cc(F)c(C(=O)N(Cc4ccc5c(c4)OC(F)(F)O5)C[C@@H]4COCCO4)cc3c21 [Example I-27]	510	120	0.8	24.4	1	4.2
Cn1ncc2c(N)nc3cc(F)c(C(=O)N(Cc4ccc5c(c4)OC(F)(F)O5)C4COC4)cc3c21 [Example I-29]	1210	292	2.7	50.6	2.6	6.1
Cn1ncc2c(N)nc3cc(F)c(C(=O)N(Cc4ccc5c(c4)OC(F)(F)O5)C[C@H]4COCCO4)cc3c21 [Example I-30]	411	125	1.9	38.5	2	6.4
CC1OCc2c1c(N)nc1cc(F)c(C(=O)N3CCOC[C@@H]3c3ccc4c(c3)OC(F)(F)O4)cc21 (stereo partly drawn) [Example I-34]	1630	293	2.8	70.8	3.1	9
CC1OCc2c1c(N)nc1cc(F)c(C(=O)N3C(c4ccc5c(c4)OC(F)(F)O5)COC[C@H]3C)cc21 (stereo partly drawn) [Example I-39]			0.9	18.5	0.7	2.5
Cn1cnc(CN(Cc2ccc3c(c2)OC(F)(F)O3)C(=O)c2cc3c(cc2F)nc(N)c2cnn(C)c23)n1 [Example I-41]			1.1	16.8	0.7	1.6
Cn1ncc2c(N)nc3cc(C#N)c(C(=O)N4CCOC[C@@H]4c4ccc5c(c4)OC(F)(F)O5)cc3c21 [Example I-53]	210	68.7	1	15.5	0.7	5.3
Cn1ncc2c(N)nc3cc(C#N)c(C(=O)N(Cc4ccc5c(c4)OC(F)(F)O5)C4CC4)cc3c21 [Example I-54]	672	61.7	1.3	28.9	1.8	4.2

From EP4700025A1, “AMIDE COMPOUND, PHARMACEUTICAL COMPOSITION COMPRISING SAME, AND USE THEREOF” (Suzhou Genhouse Bio Co., Ltd., priority 2023, dated 2024)
